Measurements taken from patent publication US12098217B2, “Fusion peptides as antimicrobial agents” (CENTRE NATIONAL DE LA RECHERCHE SCIENTIFIQUE, priority 2019, dated 2024).

Assays:
[1] = system: E. coli D22 strain; test: microbe, parasite or virus in culture; format: cell-based
Excerpt: E. coli strain D22 (F-, IpxC101, proA23, lac-28, tsx-81, trp-30, his-51, tufA1, rpsL173(strR), ampCp-1 was purchased at E. coli Genetic Stock Center (Yale University) and used in the determination of MIC and in the peptide penetration assays. E. coli ATCC23724 cells were used to infect D. melanogaster flies. 70S ribosomes were purified from the E. coli MRE600 strain (Accession AY140951) and BL21 (DE3) pLys strain was used for production of the DnaN protein.
E. coli strains were cultivated on either agar or liquid 1× Mueller Hinton broth unless specified. MIC assays were performed in duplicate in 96-well microtiter plates on the basis of the protocol recommended by the Clinical and Laboratory Standards Institute. Briefly, a mix of 5-6 fresh (less than 36 hours) colonies grown on MH agar plates were inoculated in 3 ml of MH broth and incubated for about 16 h at 37° C. under agitation. 30 μl of this saturated culture were inoculated in 3 ml of fresh medium and allowed to grow until OD600 nm of about 0.6-0.8. Dilution to an OD600 nm of 0.002 was made in MH broth. Within a time laps not exceeding 30 min, 50 μl of this cell suspension was added to 50 μl of MH broth (containing or not the peptide/antibiotic diluted in MH broth) in wells of a 96-well round bottom microwell plate (Greiner; final cell density about 2 to 5×10^5 cfu/ml). Plates were incubated at 37° C. for 18-24 h and final turbidity of each well was measured at 620 nm using a Multiskan FC microplate reader (Thermo Scientific). MIC was defined as the minimal antibiotic concentration that result in no increase of turbidity at that time. Each MIC determination was performed in duplicate and at least in two independent experiments. Plating of 75 μl of the content of the wells of interest on LB Agar plates was used to determine the MBC that is defined by a decrease of at least 99.9% of cell viability as compared to the number of viable cells in the inoculum (about 2 to 5×10^4 cfu).

[2] = system: E. coli D22 cells; conditions: FIG. 1
Method: FIG. 1 concerns the analysis of peptide penetration into E. coli cells. (a) Fluorescence microscopy of E. coli cells exposed to the three different FITC labeled peptides.
In order to analyse the penetration capacity of the peptides in E. coli D22 cells, FITC-labeled peptides were added to 1 ml of bacterial cultures (OD600=0.8) at a final concentration of 8 μg/ml. The cells were allowed to acquire the peptides for 1 h at 37° C., washed 3 times with 0.5 ml PBS, fixed with 1% formaldehyde solution in PBS for 45 min at room temperature, washed 3 times with 0.5 ml PBS and finally resuspended in 50 μl PBS. Cells were visualized using a Leica DM5500 microscope equipped with a 100× objective and images were processed using Fiji software. One-way ANOVA statistical analysis was performed with the R package.

[3] = system: E. coli 70S ribosome (^Ec70S); test: ITC, peptide interaction with E. coli 70S ribosome; format: binding; conditions: ITC 30° C., Table 2B, ^Ec70S; for Kd: FITC peptides (*), values not well defined, weak interaction; for ΔG / ΔH / −TΔS: Ni = no specific interaction, FITC peptides (*) values not well defined
Method: E. coli MRE600 cells were grown at 37° C. in LB medium until OD^600=1. Cells were centrifuged at 4° C., and pellets were resuspended in buffer A (20 mM Tris HCl pH 7.5; 200 mM NH4Cl; 20 mM MgCl2; 0.1 mM EDTA; 6 mM β-mercaptoethanol) and lysed using a French press at 1.6 kbar. The crude lysate was centrifuged (18 200 rpm) for 30 mn at 4° C. The supernatant was further centrifuged (47000 rpm) at 4° C. for 4 hours and the pellet resuspended in 12.5 ml of buffer A. This solution was laid on a 30% sucrose cushion and centrifuged (34 000 rpm) for 19 hours at 4° C. The ribosome pellet was resuspended in 12.5 ml buffer B (20 mM Tris HCl pH 7.5; 50 mM NH4Cl; 10 mM MgCl2; 0.1 mM EDTA; 6 mM β-mercaptoethanol) and centrifuged again (18 200 rpm) for 1 hour at 4° C. The supernatant was concentrated on Centrikon 100K (Millipore) and washed extensively with ITC 70S buffer. Ribosome concentration was determined by UV absorption at 260 nm. Samples were snap frozen in liquid nitrogen and kept at −80° C.
(§1) ITC experiments were performed on a iTC200 (Microcal Malvern Panalytical) or PEAQ-ITC instrument (Microcal Malvern Panalytical). The E. coli SC were washed extensively with ITC buffer (R1 buffer: 10 mM Hepes pH 7.4, 0.15 M NaCl, 3 mM EDTA) on Centrikon 10K at 4° C. before ITC experiments. […] Similarly, E. coli 70S ribosome particles were also washed extensively with ITC 70S buffer (50 mM Tris HCl pH7.5, 30 mM KCl, 70 mM NH4Cl, 7 mM MgCl2, 1 mM DTT, 5% glycerol) on Centrikon 100K at 4° C. before ITC experiments. Peptides (100 to 400 μM) were titrated at 30° C. (303.15 K) in sequential injections (usually 2 μl each) into a SC (20 or 30 μM) or 70S (10 to 15 μM) solution. Data were corrected from control experiments in which peptides were injected in ITC buffer solution. Each titration was performed at least twice. Analyses of experimental data were performed with AFFINImeter software (https://www.affinimeter.com; S4S, Santiago de Compostela, Spain).
The lack of interaction with the ribosome of E. coli has been measured by ITC at 30° C.:
The interactions of these peptides with the E. coli SC (beta ring) and the ribosome were measured by ITC at […]: […]

[4] = biological target: T1, E. coli SC (^EcSC, beta ring, DnaN) (Escherichia coli, UniProt P0A988); test: ITC, peptide interaction with E. coli sliding clamp; format: binding; conditions: for ΔH (kcal/mole): ITC 30° C. (303.15 K); for ΔH (kcal/mole) / Kd (nM) / ΔG (kcal/mole) / −TΔS (kcal/mole): Table 2A, ^EcSC, Ni = no specific interaction
T1 construct: inferred from the pET15b vector and the Ni-NTA/imidazole purification; made in house; host or cells: E. coli BL21 (DE3) pLys
T1 sequence (P0A988 whole entry): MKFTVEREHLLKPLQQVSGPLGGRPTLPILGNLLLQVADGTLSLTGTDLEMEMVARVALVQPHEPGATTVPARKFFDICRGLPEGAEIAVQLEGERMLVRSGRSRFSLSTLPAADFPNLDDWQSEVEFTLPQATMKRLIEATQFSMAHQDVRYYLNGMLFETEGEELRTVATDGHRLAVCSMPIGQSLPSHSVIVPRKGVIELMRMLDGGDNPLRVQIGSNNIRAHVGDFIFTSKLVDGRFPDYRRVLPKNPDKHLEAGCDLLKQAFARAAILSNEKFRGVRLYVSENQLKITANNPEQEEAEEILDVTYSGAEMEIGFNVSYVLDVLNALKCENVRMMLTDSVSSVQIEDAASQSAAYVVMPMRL
Method: The DnaN protein was expressed from plasmids pET15b, containing the dnaN gene from E. coli, transfected in BL21 (DE3) pLys E. coli strain. Cells were grown in LB at 37° C. to OD 0.5, then induced by IPTG (0.1 mM) at 28° C. overnight. DnaN protein was first enriched on a Ni-NTA column, eluted with an imidazole step (300 mM) and further purified on a Source Q column in buffer containing 20 mM Tris HCl pH 7.5, 0.5 mM EDTA and 10% glycerol, using a gradient from 0 to 0.5 M NaCl. After a final ultracentrifugation (45K, 1 h, 20° C.), soluble proteins were concentrated on a Centricon 30K (Millipore) in the same buffer and stored at 4° C. in 2 M ammonium sulfate.
as §1, with “[…] […]” for “Peptides (100 to 400 μM) were titrated at 30° C. (303.15 K) in sequential injections (usually 2 μl each) into a SC (20 or 30 μM) or 70S (10 to 15 μM) solution.”

[5] = biological target: Human PCNA (Homo sapiens, UniProt P12004); test: ITC, peptide interaction with human PCNA; format: binding; conditions: ITC 30° C., Human PCNA
Human PCNA, sequence (P12004 whole entry): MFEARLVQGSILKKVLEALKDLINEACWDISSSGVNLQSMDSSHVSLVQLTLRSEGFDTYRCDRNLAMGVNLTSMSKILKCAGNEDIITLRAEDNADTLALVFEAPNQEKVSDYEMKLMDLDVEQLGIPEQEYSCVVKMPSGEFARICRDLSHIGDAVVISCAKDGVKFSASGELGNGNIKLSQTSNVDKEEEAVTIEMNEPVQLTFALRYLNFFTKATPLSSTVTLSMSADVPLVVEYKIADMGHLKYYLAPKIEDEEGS
Method: The inventors have compared the affinities of the prototypical P7 SC-binding peptide for the bacterial SC and for the eukaryotic functional homolog “Proliferating Cell Nuclear Antigen” PCNA. The same analysis was performed with the DPD1 peptide that contains a well-described specific PCNA Interacting Peptide (PIP) sequence ([…]).

CC[C@H](C)[C@H](NC(=O)[C@@H]1CCCN1C(=O)[C@H](CCCNC(=N)N)NC(=O)[C@@H]1CCCN1C(=O)[C@@H]1CCCN1C(=O)[C@@H](NC(=O)[C@@H]1CCCN1C(=O)[C@H](CCCNC(=N)N)NC(=O)[C@@H]1CCCN1C(=O)[C@H](CC(C)C)NC(=O)[C@H](Cc1ccc(O)cc1)NC(=O)[C@H](CO)NC(=O)CNC(=O)[C@H](CCCCN)NC(=O)[C@H](CC(=O)O)NC(=O)[C@@H](NC(=O)[C@H](CCCCN)NC(=O)c1ccc2c(c1)C(=O)OC21c2ccc(O)cc2Oc2cc(O)ccc21)C(C)C)[C@@H](C)O)C(=O)N[C@@H](Cc1ccc(O)cc1)C(=O)N[C@@H](CC(N)=O)C(=O)N[C@@H](CCCNC(=N)N)C(=O)N[C@@H](CC(N)=O)C(=O)NCC(=O)N1CCC[C@H]1C(=O)N[C@@H](CCCNC(=N)N)C(=O)N[C@@H](CC1CCCCC1)C(=O)N[C@@H](Cc1ccccc1)C(=O)N[C@@H](CCC(N)=O)C(=O)N[C@@H](CC(C)C)C(=O)N[C@@H](CC(=O)O)C(=O)O [Peptide P72]
MIC (μM) ([1]; D22 strain): >269.9 µM
entry into E. coli cells, times less efficiently than P122 ([2]; FITC staining after exposure to equal amounts): about 3 times
Kd [3]: > 10 µM
ΔG [3]: -5.98 kcal/mol
ΔH [3]: -8.92 kcal/mol
−TΔS [3]: 2.94 kcal/mol
interaction with ^EcSC, in words ([4]; ITC 30° C.): do not interact
ΔH (kcal/mole) [4]: Ni
Kd (nM) ([4]; ITC 30° C.): Ni
ΔG (kcal/mole) ([4]; ITC 30° C.): Ni
−TΔS (kcal/mole) ([4]; ITC 30° C.): Ni

CC[C@H](C)[C@H](NC(=O)[C@@H]1CCCN1C(=O)[C@H](CCCNC(=N)N)NC(=O)[C@@H]1CCCN1C(=O)[C@@H]1CCCN1C(=O)[C@@H](NC(=O)[C@@H]1CCCN1C(=O)[C@H](CCCNC(=N)N)NC(=O)[C@@H]1CCCN1C(=O)[C@H](CC(C)C)NC(=O)[C@H](Cc1ccc(O)cc1)NC(=O)[C@H](CO)NC(=O)CNC(=O)[C@H](CCCCN)NC(=O)[C@H](CC(=O)O)NC(=O)[C@@H](NC(=O)[C@H](CCCCN)NC(=O)c1ccc2c(c1)C(=O)OC21c2ccc(O)cc2Oc2cc(O)ccc21)C(C)C)[C@@H](C)O)C(=O)N[C@@H](Cc1ccc(O)cc1)C(=O)N[C@@H](CC(N)=O)C(=O)N[C@@H](CCCNC(=N)N)C(=O)N[C@@H](CC(N)=O)C(N)=O [Peptide P122]
MIC (μM) ([1]; D22 strain): 181 to 362 µM
MIC (μg/ml) ([1]; D22 strain): 512 to 1024 µg/mL
fold increase in MIC as compared to Py ([1]; E. coli D22): 64 to 512 fold
penetration into E. coli cells, times more efficiently than P72 or P150 ([2]; average FITC signal of more than 100 bacteria): about 3 times
Kd [3]: > 10 µM
ΔG [3]: -6.91 kcal/mol
ΔH [3]: -20.1 kcal/mol
−TΔS [3]: 13.3 kcal/mol
interaction with ^EcSC, in words ([4]; ITC 30° C.): do not interact
ΔH (kcal/mole) [4]: Ni
Kd (nM) ([4]; ITC 30° C.): Ni
ΔG (kcal/mole) ([4]; ITC 30° C.): Ni
−TΔS (kcal/mole) ([4]; ITC 30° C.): Ni

peptide that contains a well-described specific PCNA Interacting Peptide (PIP) sequence (QKKITDYF) [DPD1]
Kd [5]: 0.158 µM
ΔH [5]: -9.94 kcal/mol
interaction with E.coli SC, in words ([4]; ITC 30° C., specificity comparison with PCNA): no interaction
